Test results taken from US5908851A (priority 1995, dated 1999).
Where two headings read alike, the source gives them in different places.

How the values were obtained:
[1] = target: T1, human fibroblast collagenase (Homo sapiens, UniProt P03956); assay: Inhibition of human fibroblast collagenase (MMP-1), 14C-acetylated collagen; type: biochemical; conditions: for IC50: 37° C., 16 hours, pH 7.5, read-out: In vitro inhibitory activity IC50, Fib. Collag. (MMP-1); for inhibition at 100 µM: read-out: % I (inhibition), Fib. Collag. (MMP-1)
T1 sequence (P03956 100-469): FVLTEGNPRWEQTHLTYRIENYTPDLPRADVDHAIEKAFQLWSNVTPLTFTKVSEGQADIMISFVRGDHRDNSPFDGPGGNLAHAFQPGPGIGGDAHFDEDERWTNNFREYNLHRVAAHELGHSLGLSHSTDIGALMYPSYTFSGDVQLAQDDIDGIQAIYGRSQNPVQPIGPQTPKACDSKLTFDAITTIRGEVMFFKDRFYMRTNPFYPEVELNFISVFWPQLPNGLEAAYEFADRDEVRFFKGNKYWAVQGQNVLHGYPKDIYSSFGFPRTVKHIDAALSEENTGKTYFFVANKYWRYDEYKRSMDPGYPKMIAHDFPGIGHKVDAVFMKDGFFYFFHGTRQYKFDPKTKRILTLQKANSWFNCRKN
Excerpt: The samples were centrifuged to sediment undigested collagen, and an aliquot of the radioactive supernatant removed for assay on a scintillation counter as a measure of hydrolysis.

[2] = target: T2, recombinant matrilysin (PUMP-1) (Homo sapiens, UniProt P09237); assay: Inhibition of recombinant matrilysin (PUMP-1, MMP-7), 14C-acetylated casein; type: biochemical; conditions: 37° C., 16 hours, pH 7.6; read-out: In vitro inhibitory activity IC50, Matrilysin (MMP-7)
T2 sequence (P09237 95-267): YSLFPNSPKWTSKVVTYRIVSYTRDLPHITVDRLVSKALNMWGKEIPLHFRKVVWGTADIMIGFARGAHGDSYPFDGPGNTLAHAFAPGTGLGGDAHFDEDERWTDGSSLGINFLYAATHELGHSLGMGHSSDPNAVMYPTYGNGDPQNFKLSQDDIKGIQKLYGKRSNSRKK

72 kDa gelatinase [3] = target: T3, 72 kDa gelatinase (Homo sapiens, UniProt P08253); conditions: read-out: In vitro inhibitory activity IC50, Gelatinase A (MMP-2); 37° C., 16 hours; enzyme from RPMI-7951 cells
T3 sequence (P08253 110-660): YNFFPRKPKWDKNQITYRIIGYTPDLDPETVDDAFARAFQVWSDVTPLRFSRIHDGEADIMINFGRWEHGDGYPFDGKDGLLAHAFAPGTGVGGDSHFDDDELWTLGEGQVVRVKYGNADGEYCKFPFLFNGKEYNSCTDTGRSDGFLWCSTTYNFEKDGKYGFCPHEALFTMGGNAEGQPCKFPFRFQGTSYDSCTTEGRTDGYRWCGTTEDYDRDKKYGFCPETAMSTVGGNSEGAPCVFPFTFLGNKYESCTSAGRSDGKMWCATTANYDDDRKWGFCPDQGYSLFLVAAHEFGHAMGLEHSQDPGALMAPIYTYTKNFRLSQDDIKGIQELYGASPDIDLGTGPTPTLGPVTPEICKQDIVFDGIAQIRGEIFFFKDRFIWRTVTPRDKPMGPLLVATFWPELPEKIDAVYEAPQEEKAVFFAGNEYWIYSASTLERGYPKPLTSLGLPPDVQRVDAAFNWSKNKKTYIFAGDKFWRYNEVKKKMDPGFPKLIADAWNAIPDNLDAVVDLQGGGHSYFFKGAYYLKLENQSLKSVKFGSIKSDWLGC

stromelysin-1 [4] = target: T4, stromelysin-1 (Homo sapiens, UniProt P08254); conditions: read-out: In vitro inhibitory activity IC50, Stromelysin-1 (MMP-3); 37° C., 16 hours, pH 7.5
Excerpt: (§1) The casein was acetylated ^14 C casein prepared by the method of Cawston et al. (ibid.).

stromelysin-1 [5] = target: T4, stromelysin-1; assay: biochemical
Excerpt: as §1

72 kDa gelatinase [6] = target: T3, 72 kDa gelatinase; assay: biochemical

T4 sequence (P08254 100-477, species assumed): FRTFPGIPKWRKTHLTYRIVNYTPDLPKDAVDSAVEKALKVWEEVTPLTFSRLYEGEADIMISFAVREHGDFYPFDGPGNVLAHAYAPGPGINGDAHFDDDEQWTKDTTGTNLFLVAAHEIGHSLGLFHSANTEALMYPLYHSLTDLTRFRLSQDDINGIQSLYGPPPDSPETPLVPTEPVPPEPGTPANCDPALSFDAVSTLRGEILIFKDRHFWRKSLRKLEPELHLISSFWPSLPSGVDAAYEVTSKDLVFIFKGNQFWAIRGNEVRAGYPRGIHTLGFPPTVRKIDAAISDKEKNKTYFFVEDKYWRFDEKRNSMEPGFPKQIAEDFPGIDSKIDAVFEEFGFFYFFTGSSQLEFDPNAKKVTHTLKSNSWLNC

CC(C)(C)[C@H](NC(=O)[C@H](CCCc1ccccc1)[C@H](O)C(=O)NO)C(=O)NC(c1ccccc1)c1ccccc1 [Example 10, N^4-[1S-(Benzhydryl-carbamoyl)-2,2-dimethyl-propyl]-2S,N^1-dihydroxy-3R-(3-phenyl-propyl)-succinamide]
IC50 [1]: 10000 nM | IC50 [2]: 1000 nM

CC(C)(C)[C@H](NC(=O)[C@H](C/C=C/c1ccccc1)[C@H](O)C(=O)NO)C(=O)NC(c1ccccc1)c1ccccc1 [Example 9, N^4-[1S-(Benzhydryl-carbamoyl)-2,2-dimethyl-propyl]-2S,N^1-dihydroxy-3R-(3-phenyl-allyl)-succinamide]
IC50 (72 kDa gelatinase [3]): 40000 nM | IC50 (stromelysin-1 [4]): 800 nM | inhibition at 100 µM [1]: 30% | IC50 [2]: 500 nM

CC(C)C[C@@H](C(=O)N[C@H](C(=O)NC(c1ccccc1)c1ccccc1F)C(C)(C)C)[C@H](O)C(=O)NO (stereo partly drawn) [Example 5, N^4-(1S-{[(2-Fluoro-phenyl)-phenyl-methyl]-carbamoyl}-2,2-dimethyl-propyl)-2S,N^1-dihydroxy-3R-isobutyl-succinamide]
IC50 [1]: 700 nM | IC50 (stromelysin-1 [5]): 100 nM | IC50 (72 kDa gelatinase [6]): 600 nM | IC50 [2]: 9 nM

CC(C)C[C@@H](C(=O)N[C@H](C(=O)NC(c1ccccc1)c1ccc(Cl)cc1)C(C)(C)C)[C@H](O)C(=O)NO (stereo partly drawn) [Example 3, N^4-(1S-{[(4-Chloro-phenyl)-phenyl-methyl]-carbamoyl}-2,2-dimethyl-propyl)-2R,N^1-dihydroxy-3R-isobutyl-succinamide]
IC50 [1]: 400 nM | IC50 (stromelysin-1 [5]): 200 nM | IC50 (72 kDa gelatinase [6]): 2000 nM | IC50 [2]: 10 nM

CC(C)C[C@@H](C(=O)N[C@H](C(=O)NC1c2ccccc2-c2ccccc21)C(C)(C)C)[C@H](O)C(=O)NO [Example 2, N^4-[1S-(9H-Fluoren-9-ylcarbamoyl)-2,2-dimethyl-propyl]-2S,N^1-dihydroxy-3R-isobutyl-succinamide]
IC50 [1]: 2000 nM | IC50 (stromelysin-1 [5]): 200 nM | IC50 (72 kDa gelatinase [6]): 17000 nM | IC50 [2]: 70 nM

CC(C)C[C@@H](C(=O)N[C@H](C(=O)NC(c1ccccc1)c1ccccc1)C(C)(C)O)[C@H](O)C(=O)NO [Example 6, N^4-[1S-(Benzhydryl-carbamoyl)-2-hydroxy-2-methyl-propyl]-2S, N^1-dihydroxy-3R-isobutyl-succinamide]
IC50 [1]: 2000 nM | IC50 (stromelysin-1 [5]): 200 nM | IC50 (72 kDa gelatinase [6]): 600 nM | IC50 [2]: 15 nM

CC(C)C[C@@H](C(=O)N[C@H](C(=O)NC(c1ccccc1)c1ccc(F)cc1)C(C)(C)C)[C@H](O)C(=O)NO (stereo partly drawn) [Example 4, N^4-(1S-{[(4-Fluoro-phenyl)-phenyl-methyl]-carbamoyl}-2,2-dimethyl-propyl)-2S,N^1-dihydroxy-3-isobutyl-succinamide]
IC50 [1]: 400 nM | IC50 (stromelysin-1 [5]): 60 nM | IC50 (72 kDa gelatinase [6]): 500 nM | IC50 [2]: 9 nM

CC(C)C[C@@H](C(=O)N[C@H](C(=O)NC(c1ccccc1)c1ccccc1)C(C)(C)C)[C@H](O)C(=O)NO [Example 1, N^4-[1S-(Benzhydryl-carbamoyl)-2,2-dimethyl-propyl]-2S,N^1-dihydroxy-3R-isobutyl-succinamide]
IC50 [1]: 600 nM | IC50 (stromelysin-1 [5]): 50 nM | IC50 (72 kDa gelatinase [6]): 3000 nM | IC50 [2]: 4 nM

C=CC[C@H](C(=O)NO)[C@@H](CC(C)C)C(=O)N[C@H](C(=O)NC(c1ccccc1)c1ccccc1)C(C)(C)C [Example 12, 2S-Allyl-N^4-[1S-(benzhydryl-carbamoyl)-2,2-dimethyl-propyl]-N^1-hydroxy-3R-isobutyl-succinamide]
IC50 [1]: 800 nM | IC50 (stromelysin-1 [5]): 80 nM | IC50 (72 kDa gelatinase [6]): 40000 nM | IC50 [2]: 30 nM

CO[C@H](C(=O)O)[C@@H](CC(C)C)C(=O)N[C@H](C(=O)NC(c1ccccc1)c1ccccc1)C(C)(C)O [Example 7, N^4-[1S-(Benzhydryl-carbamoyl)-2-hydroxy-2-methyl-propylcarbamoyl]-2S-methoxy-5R-methyl-hexanoic acid]
inhibition at 100 µM [1]: 40% | IC50 (stromelysin-1 [5]): 20000 nM | inhibition at 100 µM (72 kDa gelatinase [6]; read-out: % I (inhibition), Gelatinase A (MMP-2)): 50%

CO[C@H](C(=O)NO)[C@@H](CC(C)C)C(=O)N[C@H](C(=O)NC(c1ccccc1)c1ccccc1)C(C)(C)O [Example 8]
IC50 [1]: 700 nM | IC50 (stromelysin-1 [5]): 20 nM | IC50 (72 kDa gelatinase [6]): 1000 nM | IC50 [2]: 9 nM

C=CC[C@H](C(=O)NO)[C@@H](CC(C)C)C(=O)N[C@H](C(=O)NC)C(C)(C)C [Comparator 2, 2S-Allyl-N^4-(2,2-dimethyl-1S-methylcarbamoyl-propyl)-N^1-hydroxy-3R-isobutyl-succinamide, reference compound]
IC50 [2]: 20 nM

C=CC[C@H](C(=O)NO)[C@@H](CCCCCCCC)C(=O)N[C@H](C(=O)NC(c1ccccc1)c1ccccc1)C(C)(C)C [Example 13, 2S-Allyl-N^4-[1S-(benzhydryl-carbamoyl)-2,2-dimethyl-propyl]-N^1-hydroxy-3R-octyl-succinamide]
IC50 [1]: 30000 nM | IC50 (stromelysin-1 [5]): 60 nM | IC50 (72 kDa gelatinase [6]): 20000 nM | IC50 [2]: 400 nM

CC(C)C[C@@H](C(=O)N[C@H](C(=O)NC(c1ccccn1)c1ccccn1)C(C)(C)C)[C@H](O)C(=O)NO [Example 11, N^4 -{1S-[(Di-pyridin-2-yl-methyl)-carbamoyl]-2,2-dimethyl-propyl}-2S,N^1-dihydroxy-3R-isobutyl-succinamide]
IC50 [1]: 300 nM | IC50 (stromelysin-1 [5]): 200 nM | IC50 (72 kDa gelatinase [6]): 1000 nM | IC50 [2]: 20 nM
